From patent US20250255966A1, “CORN PHYTOGLYCOGEN FORMULATIONS FOR STABILIZING PROTEINS” (UNIVERSITY OF FLORIDA RESEARCH FOUNDATION, INCORPORATED, priority 2022, published 2025)

System: GFP
Assay: GFP preservation, comparison with common excipients
Type: biochemical
Details: after 10 cycles of lyophilization, excipient 20 mg/mL, 4 μM GFP
Description: As a model protein, 4 μM GFP was used. Each excipient was prepared at a concentration of 20 mg/mL as described above. Each excipient was mixed with GFP at a 1:1 (v/v) ratio. PBS without excipient was used as a control group. Samples were lyophilized, activity was measured, and relative activity was calculated using the same methods as above.

For OC[C@H]1O[C@@](CO)(O[C@H]2O[C@H](CO)[C@@H](O)[C@H](O)[C@H]2O)[C@@H](O)[C@@H]1O [sucrose], the “GFP stabilizing activity vs BSA” value was “comparable”.
OC[C@H]1O[C@H](O[C@H]2O[C@H](CO)[C@@H](O)[C@H](O)[C@H]2O)[C@H](O)[C@@H](O)[C@@H]1O [trehalose] was tested, and the “GFP stabilizing activity vs BSA” value was “comparable”.
With polyethylene glycol [PEG] the “effectiveness as GFP/protein stabilizer” value was “not an effective GFP stabilizer”.
